Measured values taken from patent US7060725B2, “Substituted sulfamate anticonvulsant derivatives” (Janssen Pharmaceutica N.V., priority 2002, dated 2006).

Legend:
[1] = tested on: maximal electroshock seizure (MES-induced seizure spread); experiment: Maximal electroshock seizure (MES) test, mouse; assay type: in vivo, mice; conditions: for Mouse Activity: dosage 30, 100, 300 mg/kg
Procedure: Anticonvulsant activity was determined using the standard MES model for generalized tonic-clonic seizures (Swinyard E A, Woodhead J H, White H S, Franklin M R, In: Levy R H, Mattson R H, Meldrum B S, Penry J K, Dreifuss F E eds. Antiepileptic drugs. New York: Raven Press, 1989:85–102).
An electric stimulus of 0.2 sec duration, 60 Hz, 50 mA in mice, 150 mA in rats, was delivered via corneal electrodes primed with an electrolyte solution containing an anesthetic agent (0.5% tetracaine hydrochloride in 0.9% saline).
Mice or rats were randomly selected into control and test groups. The animals were dosed with vehicle or test compound, at varying concentrations. […] Rats were subjected to electrical stimulus at time intervals between 15 minutes and 4 hours following administration of test compound. Abolition of the hind limb tonic extensor component was an indication of the test compound's ability to inhibit MES-induced seizure spread.
The ED50 (the calculated dose required to block the hindlimb tonic-extensor component of the maximal electroshock seizure in 50% of the animals tested) was calculated. A probit analysis (Finney D J. Probit Analysis. Cambridge, England: Cambridge University Press, 1971) was used to calculate the ED50.
Following the mouse procedure described above, representative compounds of the instant invention were tested for biological activity in the mouse, with results as listed in Table 5. Mouse activity is listed as number of mice active/total number of mice tested @ time after administration of the test compound.

[2] = tested on: maximal electroshock seizure (MES-induced seizure spread); experiment: Maximal electroshock seizure (MES) test, rat; assay type: in vivo, rats; conditions: for Rat Activity (oral) (number of rats active/total number of rats tested): 30 mg/kg
Procedure: Anticonvulsant activity was determined using the standard MES model for generalized tonic-clonic seizures (Swinyard E A, Woodhead J H, White H S, Franklin M R, In: […], Meldrum […], Dreifuss F E eds. Antiepileptic drugs. New York: Raven Press, 1989:85-102). An electric stimulus of 0.2 sec duration, 60 Hz, 50 mA in mice, 150 mA in rats, was delivered via corneal electrodes primed with an electrolyte solution containing an anesthetic agent (0.5% tetracaine hydrochloride in 0.9% saline). Mice or rats were randomly selected into control and test groups. The animals were dosed with vehicle or test compound, at varying concentrations. Mice were subjected to the electrical stimulus at 30 minutes and 4 hours following administration of test compound. […] Abolition of the hind limb tonic extensor component was an indication of the test compound's ability to inhibit MES-induced seizure spread. […] A probit analysis (Finney D J. Probit Analysis. Cambridge, England: Cambridge University Press, 1971) was used to calculate the ED50. Following the rat procedure described above, representative compounds of the instant invention were tested for biological activity in the rat, with results as listed in Table 6 and 7. Rat activity is listed as number of rats active/total number of rats tested @ time after administration of the test compound.

[3] = tested on: simple and complex partial seizure and secondarily generalized seizures; conditions: cited from earlier work

Row | SMILES | Mouse Activity [1] | Rat Activity (oral) (number of rats active/total number of rats tested) ([2]; @ 2 hrs) | Rat Activity (oral) (number of rats active/total number of rats tested) ([2]; @ 4 hrs) | Rat Activity (oral) (number of rats active/total number of rats tested) ([2]; @ 1 hr) | ED50 ([2]; @ 2 hrs) | Rat Activity (oral) (number of rats active/total number of rats tested) ([2]; @ 0.5 hrs) | ED50 ([1]; @ 2 hrs) | efficacy in clinical trials of human epilepsy [3]
1 | CC(C)(C)OC(=O)NS(=O)(=O)OC[C@@]12OC[C@H]3OC(C)(C)OC3[C@@H]1OC(C)(C)O2 (stereo partly drawn) [Compound 14, N-t-butoxycarbonyl-2,3:4,5-bis-O-(1-methylethylidene)-β-D-fructopyranose sulfamate] | No activity | 3/4 @ 2 hrs | 4/4 @ 4 hrs |  |  |  |  | 
2 | CC1(C)OC2COC3(COS(=O)(=O)NCCBr)OC(C)(C)OC3C2O1 (centres unmarked) [Compound 3] | No Activity | 2/4 @ 2 hrs |  | 1/4 @ 1 hr |  |  |  | 
3 | COC(=O)CNS(=O)(=O)OCC12OCC3OC(C)(C)OC3C1OC(C)(C)O2 (centres unmarked) [Compound 5] | No activity | 3/4 @ 2 hrs | 1/4 @ 4 hrs |  | >80 @ 2 hrs m/k |  |  | 
4 | CC1(C)OC2COC3(COS(=O)(=O)NC(=O)O[Si](c4ccccc4)(c4ccccc4)c4ccccc4)OC(C)(C)OC3C2O1 (centres unmarked) [Compound 13] | No activity |  |  | 1/4 @ 1 hr |  | 1/4 @ 0.5 hrs |  | 
5 | CCOC(=O)CCNS(=O)(=O)OCC12OCC3OC(C)(C)OC3C1OC(C)(C)O2 (centres unmarked) [Compound 4] | No Activity |  |  | 1/4 @ 1 hr |  |  |  | 
6 | CC1(C)O[C@@H]2[C@@H](CO[C@@]3(COS(N)(=O)=O)OC(C)(C)O[C@@H]23)O1 [TPM, 2,3:4,5-bis-O-(1-methylethylidene)-β-D-fructopyranose sulfamate, reference compound] |  |  |  |  |  |  | ED50 = 33 m/k | effective as adjunctive therapy or as monotherapy
